Values after ≈ are worked out from the molar mass of the structure shown. Active and inactive are the calls of the source. No cut-off for these calls is given here.

Assay [1] concerns Streptococcus pyogenes. In words: Antibacterial activity against Streptococcus pyogenes ATCC 12344 assessed as bacterial growth inhibition incubated for 24 hrs by microdilution assay. The assay is classed as functional.
Assay [2] deals with Staphylococcus aureus. In words: Antibacterial activity against Staphylococcus aureus USA300 LAC assessed as bacterial growth inhibition incubated for 24 hrs by microdilution assay. The assay is classed as functional, organism-based. (In general: In broth dilution the organism is exposed to a series of concentrations in liquid medium.)
For assay [3], the system named is HCT-116. Description: Cytotoxicity against human HCT-116 cells harboring p53-/- assessed as inhibition of cell proliferation incubated for 72 hrs by MTT assay. The assay is classed as functional, cell-based.
Assay [4] relates to HCT-116. In words: Cytotoxicity against human HCT-116 cells harboring wild type p53 assessed as inhibition of cell proliferation incubated for 72 hrs by MTT assay. Type of assay: functional, cell-based. The note with it: for IC50: HCT-116, 72 h. (Tetrazolium assays rely on reduction of a dye to a coloured formazan, in cell work by metabolically active cells.)
The subject of assay [5] is HL-60. Description: Cytotoxicity against human HL-60 cells harboring wild type FLT3 assessed as inhibition of cell proliferation incubated for 72 hrs by MTT assay. As to conditions: for IC50: HL-60, 72 h. Type of assay: functional, cell-based.
The subject of assay [6] is MV4-11. Description: Cytotoxicity against human MV4-11 cells harboring FLT3-ITD mutant assessed as inhibition of cell proliferation incubated for 72 hrs by MTT assay. As to conditions: for IC50: MV4-11, 72 h. The assay is classed as functional, cell-based.
Assay [7] concerns U-87 MG. In words: Cytotoxicity against human U87 cells harboring IDH1-R132H mutant assessed as inhibition of cell proliferation incubated for 72 hrs by MTT assay. The assay is classed as functional, cell-based. As to conditions: U-87MG ATCC.
The test system of assay [8] is U-87 MG. In words: Cytotoxicity against human U87 cells harboring wild type IDH1 assessed as inhibition of cell proliferation incubated for 72 hrs by MTT assay. The assay is classed as functional, cell-based. As to conditions: U-87MG ATCC.

Regarding `CC(=O)/C=C\C(=O)/C(C)=C/C=C/C(C)=C1/C(=O)C[C@H]2[C@@]3(C)CCC(=O)C(C)(C)[C@@H]3CC[C@]12C`, in assay [1], the MIC – broadly, the lowest concentration that inhibits growth of the organism – was determined as 0.1 µg/mL (≈ 0.222 µM). Also, the outcome in assay [2] was Active.

As to `CC(=O)O[C@H]1CC[C@@]2(C)[C@@H](CC[C@]3(C)/C(=C(C)/C=C/C=C(\C)[C@H]4CC=C(C)C(=O)O4)C(=O)C[C@@H]23)C1(C)C`, the result in assay [3] was Active. The IC50 – broadly, the concentration at which inhibition is half-maximal – came out at 2490 nM in assay [4], 42 nM in assay [5] and 280 nM in assay [6].

With `CC(=O)/C=C/C(=O)/C(C)=C/C=C/C(C)=C1/C(=O)C[C@H]2[C@@]3(C)CCC(=O)C(C)(C)[C@@H]3CC[C@]12C`, the MIC in assay [1] turned out to be 1.8 µg/mL (≈ 3.99 µM). For the same compound, the result in assay [2] was Active.

In the case of `CC(=O)/C=C\C(=O)/C(C)=C/C=C/C(C)=C1/C(=O)C[C@H]2[C@@]3(C)CC[C@H](OC(C)=O)C(C)(C)[C@@H]3CC[C@]12C`, in assay [1], the MIC turned out to be 1 µg/mL (≈ 2.02 µM). Besides, the outcome in assay [2] was Active.

`CC1=CC[C@@H](/C(C)=C/C=C/C(C)=C2\C(=O)C[C@H]3[C@@]4(C)CCC(=O)C(C)(C)[C@@H]4CC[C@]23C)OC1=O`: the outcome in assay [3], in assay [7], in assay [4], in assay [8], in assay [5] and in assay [6] was Active.

Regarding `CC(=O)/C=C/C(=O)/C(C)=C/C=C/C(C)=C1\C(=O)C[C@H]2[C@@]3(C)CCC(=O)C(C)(C)[C@@H]3CC[C@]12C` [GEODITIN A], the MIC in assay [1] is 0.9 µg/mL (≈ 2 µM). For the same compound, the result in assay [2] was Active.

For the compound `CC(=O)/C=C\C(=O)/C(C)=C/C=C/C(C)=C1\C(=O)C[C@H]2[C@@]3(C)CCC(=O)C(C)(C)[C@@H]3CC[C@]12C` [ISOGEODITIN A], the MIC in assay [1] stood at 0.4 µg/mL (≈ 0.888 µM). Also, the result in assay [2] was Active.

For `CC(=O)/C=C\C(=O)/C(C)=C/C=C/C(C)=C1\C(=O)C[C@H]2[C@@]3(C)CC[C@H](OC(C)=O)C(C)(C)[C@@H]3CC[C@]12C` [ISOGEODITIN B], the MIC in assay [1] is 1.9 µg/mL (≈ 3.84 µM).

With `C\C(=C/C=C/C(C)=C1/C(=O)C[C@H]2[C@@]3(C)CCC(=O)C(C)(C)[C@@H]3CC[C@]12C)c1ccc(C)c(=O)o1` [STELLETIN A], the result in assay [3], in assay [7], in assay [4], in assay [8], in assay [5] and in assay [6] was Active. In addition, in assay [1], the minimum inhibitory concentration (MIC) worked out at 1.8 µg/mL (≈ 3.89 µM).

As for `CC(=O)O[C@H]1CC[C@@]2(C)[C@@H](CC[C@]3(C)\C(=C(C)/C=C/C=C(\C)c4ccc(C)c(=O)o4)C(=O)C[C@@H]23)C1(C)C` [STELLETTIN C], the result in assay [3], in assay [7], in assay [4], in assay [8], in assay [5] and in assay [6] was Active. In addition, in assay [1], the MIC turned out to be 2 µg/mL (≈ 3.95 µM).

As to `CC(=O)O[C@H]1CC[C@@]2(C)[C@@H](CC[C@]3(C)/C(=C(C)/C=C/C=C(\C)c4ccc(C)c(=O)o4)C(=O)C[C@@H]23)C1(C)C` [STELLETTIN D], the outcome in assay [3], in assay [7] and in assay [8] was Active. In assay [1], the MIC came out at 2 µg/mL (≈ 3.95 µM). Further, the results for the IC50 in assay [4], in assay [5] and in assay [6] were 2350 nM, 15 nM and 390 nM, respectively.

Source of the values: ChEMBL document CHEMBL5143727, “Cytotoxic and Antibacterial Isomalabaricane Terpenoids from the Sponge Rhabdastrella globostellata” (J Nat Prod, 2022).
